SMILES strings stand for the structures. Like-named read-outs stand apart in the source and are kept apart here.

Series [1] is classed as in vivo. Here is the method: Methods: Forty-five female CD-1 mice were distributed by means of the body weight stratification method into nine experimental groups (A-I) (5 animals for group) that differed in the treatment or in the day on which the reference items (paclitaxel and carboplatin) were administered.
The table below summarizes the treatment groups. Please note that the same administration schedule and doses were administered as in the previous efficacy studies.
The safety assessment relied on observed mortality, local and systemic clinical signs, body weight and food consumption recorded throughout the whole study. In addition, clinical pathology determinations (biochemistry and hematology) were performed before sacrifice in all animals. At the end of the observation period (one day after the last administration), all surviving animals were sacrificed and subjected to a gross necropsy. Moreover, the safety assessment was also based on the weight of selected target organs collected at sacrifice.

For series [2], the system named is SH-SY5Y human neuroblastoma xenograft. It is filed as in vivo, Nu/nu female mice. As to the method: Methods: Immunodeficient athymic NMRI-Foxn1^nu/Foxn1^nu nude mice were subcutaneously injected with SH-SY5Y cells. This cell line was genetically modified to express luciferase, which would allow the in vivo study not only of tumor size, but also of metastasis formation. When tumors reached an average volume of 80 mm^3, mice were randomly distributed into different treatment groups. ABTL0812 was administered orally at 120 mg/kg daily. In parallel we used cisplatin, a drug included in the chemotherapy induction phase for the treatment of neuroblastoma. Cisplatin was administered at 2 mg/kg i.p. twice a week (Wang et al. 2010). Additionally, we studied the effect of combining ABTL0812 with cisplatin at the indicated doses.
C. Metastasis formation. In order to investigate the effect of ABTL0812 in metastasis formation we used a SH-SY5Y cell line transduced with a luciferase reporter vector. As described above, mice bearing xenograft tumors derived from this cell line were treated with ABTL0812, cisplatin or the combination of both drugs. After ten days of treatment animals were sacrificed and metastasis were assessed ex vivo by monitoring luciferase-expressing cells in lung and liver.

For series [3], the system named is A549 (human lung carcinoma) cell line. Nature of the series: Cell viability (MTT) of ABTL0812 in combination with docetaxel in lung cancer. Type of series: cell-based. The following applies: Homo sapiens, 72 h, A549, three days, FBS 0.5%, single agent. Here is the method:
Methods: A549 cells were incubated with increasing concentrations of ABTL0812 (3-300 μM), docetaxel (0.01-100 μM), or a combination of both (subIC50, i.e., 20 μM fixed concentration of ABTL812 and 0.01-100 μM docetaxel) for three days (FBS 0.5%). […] In the denominator, (Dx)1 is for D1“alone” that inhibits a system x %, and (Dx)2 is for D2“alone” that inhibits a system x %.

The subject of series [4] is A549 human lung adenocarcinoma xenograft. It is filed as in vivo. Particulars: ABTL0812 30 mg/kg/day oral 5 times a week; docetaxel 5 mg/kg i.p. once a week. As to the method:
Methods: Mice were injected with 5×10^6 A549 cells in each flank to induce tumor formation. […] ABTL0812 was administered by the oral route at 30 mg/kg/day, 5 times a week. Docetaxel 5 mg/kg was administered intra-peritoneally once a week (Coxon et al. 2012). Tumor volume and body weight were monitorized 3 times a week.

Series [5] concerns MiaPaca2 (human pancreatic carcinoma). Nature of the series: Cell viability (MTT) of ABTL0812 alone or with gemcitabine in pancreatic cancer. It is filed as cell-based. The following applies: Homo sapiens, MIA PaCa-2; MiaPaca2, 72h, 0.5% FBS, MTT, single agent. As to the method:
Methods: MiaPaca2 cells were seeded in 24-well plates together with gemcitabine (0.01-100 μM), ABTL812 (3-300 μM), or a combination of both (subIC50, i.e., 25 μM fixed concentration of ABTL0812 with 0.01-100 μM gemcitabine) and left in the incubator for 72h (0.5% FBS). Cell viability was studied by the MTT assay and several parameters were determined to evaluate a possible synergism. First the IC50 for each drug alone or the combination was calculated. Then, synergism (CI) was calculated as described above.

For series [6], the system named is MiaPaca2 human pancreatic cancer xenograft. Nature of the series: Human pancreatic xenograft (MiaPaca-2), gemcitabine and Nab-paclitaxel/gemcitabine. It is filed as in vivo, Athymic Nude-Foxn1nu female mice. Particulars: ABTL0812 120 mg/kg oral 5 times a week; gemcitabine 60 mg/kg, Nab-Paclitaxel 5 mg/kg i.p. 2 times a week (suboptimal chemotherapy dose). Here is the method: It is important to change the site of injection to avoid intestinal necrosis and keep Nab-Paclitaxel and gemcitabine injections as far as possible one from the other in mice abdomen. • Gemcitabine+ABTL0812 (n=10): treated orally with 120 mg/kg of ABTL0812 in 200 μl of distilled water+5% glycerol, 5 times a week and with 60 mg/kg of gemcitabine administered i.p in 100 μl of sterile water, 2 times a week. ABTL0812 was always administered before chemotherapy with the aim of reducing the stress derived from the i.p. injection, that is normally applied as the last administration. • Gemcitabine+Nab-Paclitaxel+ABTL0812 (n=8): treated orally with 120 mg/kg of ABTL0812 in 200 μl of distilled water+5% glycerol, 5 times a week, with 60 mg/kg of gemcitabine administered i.p. in 100 μl of sterile water, 2 times a week and with 5 mg/kg of Nab-Paclitaxel administered i.p. in 230 μl of 0.9% NaCl solution 2 times a week. As in the gemcitabine+Nab-Paclitaxel group, injections where administered in separated areas of the abdomen. […]
Treatment efficacy was assessed by measuring tumor volume three days a week. Additionally, total body weight was monitored three days a week to test the toxicity associated with the treatments in addition to visual examination of signs indicative of clinicopathological symptoms. […]
Background: A xenograft is tissue or cells of one species grown in another, often human tumour cells in immunodeficient mice.

Series [7] concerns H157 cells. Description: Cell viability (MTT) of ABTL0812 in combination with paclitaxel, H157. Type of series: cell-based, human. Particulars: Homo sapiens, NCI-H157; H157, 48 hours, 0.1% FBS, single agent. As to the method:
(§1) Methods: A549 cells were incubated with increasing concentrations of ABTL0812 (3-300 μM), paclitaxel (0.003-1 μM), or a combination of both using subIC50 fixed concentration of ABTL0812 and 0.003-1 μM paclitaxel for 72 hours in DMEM with 0.1% FBS. H157, H1957 and HTB-812 cells were incubated with increasing concentrations of paclitaxel (0.001-10 μM) alone and in combination with subIC50 fixed concentration of ABTL0812 for 48 hours in DMEM with 0.1% FBS. Cell viability was evaluated in all cases by MTT assay and IC50's were calculated for paclitaxel and the combination. The concentrations of the combinations for the different cell lines were:
(§2) Finally, the Combination Index (CI), as described in the previous section, was calculated for the values of paclitaxel IC50.

In series [8] the test system is H1957 cells. Description: Cell viability (MTT) of ABTL0812 in combination with paclitaxel, H1957. Type of series: cell-based, human. The following applies: Homo sapiens; H1957, 48 hours, 0.1% FBS, single agent. As to the method: as §1, §2
For series [9], the system named is HTB-812 cells. Nature of the series: Cell viability (MTT) of ABTL0812 in combination with paclitaxel, HTB-812. It is filed as cell-based, human. The following applies: Homo sapiens; HTB-812, 48 hours, 0.1% FBS, single agent. Here is the method: as §1, §2
Series [10] has as its system MDB-DA-231 (human triple negative breast cancer). Nature of the series: Cell viability (MTT) of ABTL0812 alone or with paclitaxel in breast cancer. Particulars: Homo sapiens; MDB-DA-231, 48h, 0.5% FBS, MTT, single agent. Type of series: cell-based. As to the method:
Methods: MDB-DA-231 cells were seeded in 24-well plates together with increasing concentration of paclitaxel (1-100 nM) in the presence of 5, 10 and 20 μM of ABTL0812 (all doses below to an IC25) for 48h (0.5% FBS). Cell viability was studied by the MTT assay and several parameters were determined to evaluate a possible synergism. First the IC50 for each drug alone or the combination was calculated.

The subject of series [11] is LA1-5S neuroblastoma cell line. Nature of the series: Cell viability (crystal violet) of ABTL0812 with retinoic acid, LA1-5S. The following applies: 24h.
Method: (§3) Methods: LA1-5S and SK-N-BE(2) cells were incubated with a subIC50 fixed concentration of ABTL0812 (30 μM), increasing concentrations of 10 μM, 20 μM and 30 μM of retinoic acid or a combination of both. […] Cells were treated for 24h in IMDM with 0.5% FBS. Cell viability was evaluated in all cases by crystal violet assay. Different doses were assessed in six replicates and the results shown are the average of two independent experiments. Statistical analyses were performed according to the T-Test principle with GraphPad Prism® 5.0 software (* p<0.05; ** p<0.01; *** p<0.001)..
Series [12] has as its system SK-N-BE(2) human neuroblastoma cell line. Nature of the series: Cell viability (crystal violet) of ABTL0812 with retinoic acid, SK-N-BE(2). Particulars: 24h.
Method: as §3

As to `N.N.O=C([O-])C1(C(=O)[O-])CCC1.[Pt+2]` [Carboplatin], the “Body Weight Gain D 1-4” value in [1] (ABTL0812 120 mg/kg p.o. days 2-6, 9-13, paclitaxel 15, carboplatin 50 mg/kg i.p. D 2/9) was -0.626 g. Besides, in [1] (PTX/CP on D 2/9), the “Biochemistry Creat” value stood at 8.83 µmol/L, the “Biochemistry Triglyc” value was 1.35 mmol/L, the “Biochemistry Urea” value is given as 9.50 mmol/L and the “Body Weight Gain D 8-11” value was -0.450 g. In series [1] (PTX/CP on D 2/9), the “Hematology PLT” value is 790 ×10^3/μL, the “Hematology RBC” value is reported as 8.40 ×10^6/μL and the “Hematology WBC” value is 7.09 ×10^3/μL.

With `N.N.[Cl][Pt][Cl]` [Cisplatin, reference compound], in series [2] (mouse, in vivo), the Hematocrit is 37.3 ± 2.7%; the RBC is listed as 6.8 ± 0.9 ×10^6/μL; the WBC was 3.0 ± 0.6 ×10^3/μL; the “hematological safety” value is “induced anemia and reduced white blood cell count”. In addition, the “metastasis formation in lung and liver” value in [2] (ten days of treatment, luciferase-expressing cells ex vivo) is “no significant effect in inhibiting metastasis formation”.

In the case of `CC(=O)O[C@@]12CO[C@@H]1C[C@H](O)[C@@]1(C)C(=O)[C@H](O)C3=C(C)[C@@H](OC(=O)[C@H](O)[C@@H](NC(=O)OC(C)(C)C)c4ccccc4)C[C@@](O)([C@@H](OC(=O)c4ccccc4)[C@H]21)C3(C)C` [Docetaxel, reference compound], the IC50 in series [3] turned out to be 1.7 µM. In [4], the tumor volume result is “similarly reduced tumor volume”.

With `Nc1ccn([C@@H]2O[C@H](CO)[C@@H](O)C2(F)F)c(=O)n1` [Gemcitabine, reference compound], the IC50 in series [5] stood at 10.2 µM. Moreover, in series [6], the tumor volume entry is recorded as “do not show significant difference in tumor volume compared with vehicle group”.

`CC(=O)O[C@H]1C(=O)[C@@]2(C)[C@H]([C@H](OC(=O)c3ccccc3)[C@]3(O)C[C@H](OC(=O)[C@H](O)[C@@H](NC(=O)c4ccccc4)c4ccccc4)C(C)=C1C3(C)C)[C@]1(OC(C)=O)CO[C@@H]1C[C@@H]2O` [Paclitaxel]: the 50% inhibitory concentration (IC50) in series [7] turned out to be 4.19 µM. Besides, the IC50 in series [8] was found to be 3.68 µM. Besides, the IC50 in series [9] worked out at 2.71 µM. Further, the IC50 in series [10] turned out to be 0.0087 µM. Also, in [1] (mouse, in vivo), the “Biochemistry Creat” value was determined as 9.74 µmol/L, the “Biochemistry Triglyc” value is reported as 1.31 mmol/L, the “Biochemistry Urea” value is recorded as 9.50 mmol/L and the “Body Weight Gain D 8-11” value stood at 0.442 g. Moreover, in series [1] (mouse, in vivo), the “Hematology PLT” value was 1378 ×10^3/μL, the “Hematology RBC” value was 9.59 ×10^6/μL and the “Hematology WBC” value is recorded as 6.28 ×10^3/μL.

Regarding `CC1=C(/C=C/C(C)=C/C=C/C(C)=C/C(=O)O)C(C)(C)CCC1` [retinoic acid], the “cytotoxicity” value is given as “even lower” in series [11] (LA1-5S, 30 μM ABTL0812, retinoic acid 10-30 μM) and “even lower” in series [12] (SK-N-BE(2), 30 μM ABTL0812, retinoic acid 10-30 μM). Moreover, the cell viability in series [11] (LAI-5S cells, combination with low concentration of ABTL0812) came out at 82.8%; in series [12] (SK-N-BE(2) cells, combination with low concentration of ABTL0812) it was 70.4%.

As usually defined, the IC50 is the concentration at which inhibition is half-maximal. What is called cell viability is a read-out of living cells in per cent, often relative to untreated cells.

These data come from US11260042B2, “Pharmaceutical combination for the treatment of cancer” (ABILITY PHARMACEUTICALS S.L., priority 2017, dated 2022).
